Test [1] addresses GDP-bound KRAS wild-type protein (Homo sapiens, UniProt P01116). Kind of test: Binding to KRAS by surface plasmon resonance (SPR), Single Cycle Kinetics. The following applies: SPR Single Cycle Kinetics, GDP-bound KRAS wild-type protein, 1:1 binding model; read-out: KRAS KD.
Test [2] has as its target GDP-bound NRAS wild-type protein (Homo sapiens, UniProt P01111). In words: Binding to NRAS by surface plasmon resonance (SPR), Single Cycle Kinetics. The following applies: SPR KD ratio NRAS/KRAS, class symbols.
Test [3] addresses GDP-bound HRAS wild-type protein (Homo sapiens, UniProt P01112). In words: Binding to HRAS by surface plasmon resonance (SPR), Single Cycle Kinetics. Particulars: SPR KD ratio HRAS/KRAS, class symbols. (SPR reads the build-up and loss of mass on a sensor chip optically.)

The values that follow come from US20240158446A1, “CYCLIC COMPOUND HAVING SELECTIVE INHIBITORY ACTION ON KRAS OVER HRAS AND NRAS” (CHUGAI SEIYAKU KABUSHIKI KAISHA, priority 2021, published 2024).

SMILES strings stand for the structures.

GDP-bound KRAS wild-type protein, sequence (P01116 whole entry): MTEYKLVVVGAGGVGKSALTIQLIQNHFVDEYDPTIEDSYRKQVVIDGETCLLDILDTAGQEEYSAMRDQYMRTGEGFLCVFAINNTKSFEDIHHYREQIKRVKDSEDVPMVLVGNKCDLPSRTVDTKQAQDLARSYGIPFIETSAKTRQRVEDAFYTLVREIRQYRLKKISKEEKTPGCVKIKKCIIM
GDP-bound HRAS wild-type protein, sequence (P01112 whole entry): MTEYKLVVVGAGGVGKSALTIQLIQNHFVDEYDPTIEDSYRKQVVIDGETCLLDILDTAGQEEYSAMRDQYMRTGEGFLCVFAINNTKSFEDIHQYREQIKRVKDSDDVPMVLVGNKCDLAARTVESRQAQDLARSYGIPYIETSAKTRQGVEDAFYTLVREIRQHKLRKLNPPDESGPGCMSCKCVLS
GDP-bound NRAS wild-type protein, sequence (P01111 whole entry): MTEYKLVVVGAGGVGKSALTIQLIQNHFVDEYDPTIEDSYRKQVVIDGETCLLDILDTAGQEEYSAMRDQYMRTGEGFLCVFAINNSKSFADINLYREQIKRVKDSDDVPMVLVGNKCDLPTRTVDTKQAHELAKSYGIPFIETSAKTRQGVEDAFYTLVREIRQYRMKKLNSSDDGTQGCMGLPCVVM

In general, Kd refers to the constant that tells how readily two partners part at equilibrium. On to `CCC[C@H]1C(=O)N[C@@H]([C@@H](C)CC)C(=O)N(C)CC(=O)N(C)[C@H]2C/C=C\CCN(C2=O)[C@@H](Cc2ccc(C(F)(F)F)cc2)C(=O)N(C)CC(=O)N[C@@H](CCc2ccc3sc(F)c(C)c3c2)C(=O)N2C[C@H](OCC)C[C@H]2C(=O)NC2(CC(C)(C)C2)C(=O)N(C)[C@@H](C2CCCC2)C(=O)N(C)[C@H](C(=O)N(C)C)CC(=O)N1C` [PP2948], for which the Kd in test [1] was found to be 0.055 nM. In addition, the “NRAS/KRAS (ratio of KD value with respect to GDP-bound NRAS wild-type protein to KD value with respect to KRAS)” value in test [2] was “A (a compound having 10 or more and less than 20 is denoted as A)”. Moreover, the “HRAS/KRAS (ratio of KD value with respect to GDP-bound HRAS wild-type protein to KD value with respect to KRAS)” value in test [3] is “A (a compound having 10 or more and less than 20 is denoted as A)”.

For `CCC[C@H]1C(=O)N[C@@H]([C@@H](C)CC)C(=O)N(C)CC(=O)N(C)[C@H]2C/C=C\CCN(C2=O)[C@@H](Cc2ccc(C)cc2)C(=O)N(C)CC(=O)N[C@@H](CCc2ccc3sc(F)c(C)c3c2)C(=O)N2C[C@H](OCC)C[C@H]2C(=O)NC2(CC(C)(C)C2)C(=O)N(C)[C@@H](C2CCCC2)C(=O)N(C)[C@H](C(=O)N(C)C)CC(=O)N1C` [PP2949], the Kd in test [1] turned out to be 0.059 nM. Further, the “NRAS/KRAS (ratio of KD value with respect to GDP-bound NRAS wild-type protein to KD value with respect to KRAS)” value in test [2] was “A (a compound having 10 or more and less than 20 is denoted as A)”. For the same compound, the “HRAS/KRAS (ratio of KD value with respect to GDP-bound HRAS wild-type protein to KD value with respect to KRAS)” value in test [3] is “A (a compound having 10 or more and less than 20 is denoted as A)”.

With `CCC[C@H]1C(=O)N[C@@H]([C@@H](C)CC)C(=O)N(C)CC(=O)N(C)[C@H]2C/C=C\CCN(C2=O)[C@@H](Cc2ccc(C(F)(F)F)cc2)C(=O)N(C)CC(=O)N[C@@H](CCc2cc(Cl)c3c(ccn3C)c2)C(=O)N2C[C@H](OCC)C[C@H]2C(=O)NC2(CC(C)(C)C2)C(=O)N(C)[C@@H](C2CCCC2)C(=O)N(C)[C@H](C(=O)N(C)C)CC(=O)N1C` [PP2950], in test [1], the dissociation constant Kd turned out to be 0.76 nM. Moreover, in test [2], the “NRAS/KRAS (ratio of KD value with respect to GDP-bound NRAS wild-type protein to KD value with respect to KRAS)” value was “A (a compound having 10 or more and less than 20 is denoted as A)”. Besides, the “HRAS/KRAS (ratio of KD value with respect to GDP-bound HRAS wild-type protein to KD value with respect to KRAS)” value in test [3] was “A (a compound having 10 or more and less than 20 is denoted as A)”.

In the case of `CCO[C@@H]1C[C@H]2C(=O)NC3(CCC3)C(=O)N(C)[C@@H](C3CCCC3)C(=O)N(C)[C@H](C(=O)N3CCCCC3)CC(=O)N(C)[C@H]3CCC/C=C/c4ccc(cc4)C[C@@H](C(=O)N(C)CC(=O)N[C@@H](CCc4cc(F)c(C(F)(F)F)c(F)c4)C(=O)N2C1)N1CC/C=C\C[C@@H](C1=O)N(C)C(=O)CN(C1CC1)C(=O)[C@H]([C@@H](C)CC)NC3=O` [PP2954], the Kd in test [1] amounted to 0.37 nM. In test [2], the “NRAS/KRAS (ratio of KD value with respect to GDP-bound NRAS wild-type protein to KD value with respect to KRAS)” value is “A (a compound having 10 or more and less than 20 is denoted as A)”. The “HRAS/KRAS (ratio of KD value with respect to GDP-bound HRAS wild-type protein to KD value with respect to KRAS)” value in test [3] is “A (a compound having 10 or more and less than 20 is denoted as A)”.

With `CCO[C@@H]1C[C@H]2C(=O)NC3(CCC3)C(=O)N(C)[C@@H](C(CC)CC)C(=O)N(C)[C@H](C(=O)N3CCCCC3)CC(=O)N(C)[C@H]3CCC/C=C/c4ccc(cc4)C[C@@H](C(=O)N(C)CC(=O)N[C@@H](CCc4cc(F)c(C(F)(F)F)c(F)c4)C(=O)N2C1)N1CC/C=C\C[C@@H](C1=O)N(C)C(=O)CN(C1CC1)C(=O)[C@H]([C@@H](C)CC)NC3=O` [PP2956], in test [1], the Kd turned out to be 1.1 nM. The “NRAS/KRAS (ratio of KD value with respect to GDP-bound NRAS wild-type protein to KD value with respect to KRAS)” value in test [2] is recorded as “AA (a compound having 20 or more is denoted as AA)”. The “HRAS/KRAS (ratio of KD value with respect to GDP-bound HRAS wild-type protein to KD value with respect to KRAS)” value in test [3] is “A (a compound having 10 or more and less than 20 is denoted as A)”.
